{"source": "paper PMC12162873", "about": "“Modulating phosphatase DUSP22 with BML-260 ameliorates skeletal muscle wasting via Akt independent JNK-FOXO3a repression” (EMBO Molecular Medicine, 2025)", "system": "C2C12 murine myotubes", "assay": "RNA Seq of DUSP22 expression in Dex-treated C2C12 myotubes", "format": "cell-based, mouse", "conditions": "C2C12 myotubes treated with Dex, three clusters of n = 3, replicates", "protocol": "(A) DUSP22 expression in aged individuals (over 70 years, n = 15) and aged individuals diagnosed with sarcopenia (over 70 years, n = 18), p = 0.0009 (obtained from the Singapore Sarcopenia Study; (GEO accession no. GSE111016 (Migliavacca et al, [2019])). (B) DUSP22 expression in C2C12 murine myotubes treated with vehicle or dexamethasone (Dex) to induce atrophy (n = 3 each) Custer 1 (p = 0.024), Cluster 2 (p = 0.13), Cluster 3 (p = 0.0246). Expression was measured using RNA Seq. TPM=transcript per million. (C) qPCR analysis of DUSP22 expression in four models of muscle atrophy: (1) C2C12 myotubes treated with Dex (n = 5), p = 7.67E−05, (2) the TA muscle of C57BL/6 mice treated with Dex (n = 4), p = 0.09, (3) the TA muscle of young (5 months-old, n = 9) and geriatric (27 months-old, n = 8) C57BL/6 mice, p = 0.0324, (4) the TA of C57BL/6 mice after hind limb immobilization (n = 3), p = 0.018. (D) qPCR of DUSP22 expression in C2C12 myoblasts transfected with a DUSP22 CRISPR activation plasmid (DUSP22^endoOE) or control plasmid (CON^endoOE) (n = 3), p = 0.0022. (E) Fast myosin (MYH2) immunocytochemistry of CON^endoOE and DUSP22^endoOE myoblasts after 96 h culture in DM (scale bar = 100 µm). (F) Fusion index (n = 6). (G) Differentiation index (n = 6), p = 9.91E−09. […]", "note": "“And” between values parts separate entries of the source, which are not always exact repeats. Equal values may be shown once.", "data": [{"smiles": "C[C@@H]1C[C@H]2[C@@H]3CCC4=CC(=O)C=C[C@]4(C)[C@@]3(F)[C@@H](O)C[C@]2(C)[C@@]1(O)C(=O)CO", "note": "[Dex, dexamethasone]", "values": [{"measurement": "DUSP22 expression, RNA Seq", "value": "18.5715 TPM and 15.8769 TPM and 15.1133 TPM and 25.7965 TPM and 17.3247 TPM and 20.9604 TPM and 20.6804 TPM and 15.7123 TPM and 15.7246 TPM"}]}]}
